Assay results: ChEMBL document CHEMBL3872242, “Anti-inflammatory tetraquinane diterpenoids from a Crinipellis species” (Bioorg Med Chem, 2017)
Activity calls are given as the source filed them. The calls are words filed in the database; no cut-off is given here.

What was measured:
MONO-MAC-6 [1] = assay: Inhibition of CXCL1 mRNA expression in LPS/INF-gamma stimulated human MONO-MAC-6 cells at 3.8 uM preincubated for 1 hr followed by LPS/INF-gamma stimulation measured after 16 hrs; assay type: functional, cell-based
[2] = Down regulation of TNF-alpha mRNA expression in LPS/INF-gamma stimulated human MONO-MAC-6 cells at 3.8 uM preincubated for 1 hr followed by LPS/INF-gamma stimulation measured after 4 hrs by quantitative RT-PCR analysis; assay type: functional, cell-based
MONO-MAC-6 [3] = assay: Inhibition of CCL1 mRNA expression in LPS/INF-gamma stimulated human MONO-MAC-6 cells at 3.8 uM preincubated for 1 hr followed by LPS/INF-gamma stimulation measured after 16 hrs; assay type: functional, cell-based
MONO-MAC-6 [4] = assay: Inhibition of IL-23 mRNA expression in LPS/INF-gamma stimulated human MONO-MAC-6 cells at 3.8 uM preincubated for 1 hr followed by LPS/INF-gamma stimulation measured after 16 hrs; assay type: functional, cell-based
[5] = Effect on GAPDH mRNA expression in human MONO-MAC-6 cells at 2.52 to 3.8 uM preincubated for 1 hr followed by LPS/INF-gamma stimulation measured after 4 hrs by quantitative RT-PCR analysis; assay type: ADME, cell-based; settings: mono-mac-6, 4 h
MONO-MAC-6 [6] = assay: Inhibition of human THP1 cells derived IL-8 promoter dependent transcription activity expressed in LPS/INF-gamma stimulated human MONO-MAC-6 cells measured after 4 hrs by luciferase reporter gene assay; assay type: functional, cell-based; settings: MONO-MAC-6, 4 h
MONO-MAC-6 [7] = assay: Inhibition of IL-8 mRNA expression in LPS/INF-gamma stimulated human MONO-MAC-6 cells at 3.8 uM preincubated for 1 hr followed by LPS/INF-gamma stimulation measured after 16 hrs; assay type: functional, cell-based
MONO-MAC-6 [8] = assay: Inhibition of CXCL11 mRNA expression in LPS/INF-gamma stimulated human MONO-MAC-6 cells at 3.8 uM preincubated for 1 hr followed by LPS/INF-gamma stimulation measured after 16 hrs; assay type: functional, cell-based
MONO-MAC-6 [9] = assay: Inhibition of TNF-alpha mRNA expression in LPS/INF-gamma stimulated human MONO-MAC-6 cells at 3.8 uM preincubated for 1 hr followed by LPS/INF-gamma stimulation measured after 16 hrs; assay type: functional, cell-based
MONO-MAC-6 [10] = assay: Inhibition of LPS/INF-gamma induced CXCL10 promoter dependent transcription activity in human MONO-MAC-6 cells measured after 4 hrs by luciferase reporter gene assay; assay type: functional
[11] = Cytotoxicity against human MONO-MAC-6 cells up to 50 uM measured after 24 hrs by XTT assay; assay type: toxicity, cell-based; settings: mono-mac-6, 24 h
[12] = Effect on constitutive activity of EF-1alpha expressed in human MONO-MAC-6 cells up to 50 uM measured after 4 hrs by luciferase reporter gene assay; assay type: ADME, cell-based; settings: mono-mac-6, 4 h
MONO-MAC-6 [13] = assay: Inhibition of IL-6 mRNA expression in LPS/INF-gamma stimulated human MONO-MAC-6 cells at 3.8 uM preincubated for 1 hr followed by LPS/INF-gamma stimulation measured after 16 hrs; assay type: functional, cell-based
MONO-MAC-6 [14] = assay: Inhibition of CCL3 mRNA expression in LPS/INF-gamma stimulated human MONO-MAC-6 cells at 3.8 uM preincubated for 1 hr followed by LPS/INF-gamma stimulation measured after 16 hrs; assay type: functional, cell-based
[15] = Down regulation of COX-2 mRNA expression in LPS/INF-gamma stimulated human MONO-MAC-6 cells at 3.8 uM preincubated for 1 hr followed by LPS/INF-gamma stimulation measured after 4 hrs by quantitative RT-PCR analysis; assay type: functional, cell-based
[16] = Down regulation of IL-8 mRNA expression in LPS/INF-gamma stimulated human MONO-MAC-6 cells at 3.8 uM preincubated for 1 hr followed by LPS/INF-gamma stimulation measured after 4 hrs by quantitative RT-PCR analysis; assay type: functional, cell-based
[17] = Down regulation of CCL2 mRNA expression in LPS/INF-gamma stimulated human MONO-MAC-6 cells at 3.8 uM preincubated for 1 hr followed by LPS/INF-gamma stimulation measured after 4 hrs by quantitative RT-PCR analysis; assay type: functional, cell-based
[18] = Inhibition of NF-kappaB (unknown origin) expressed in LPS/INF-gamma-stimulated human MONO-MAC-6 cells measured after 4 hrs by luciferase reporter gene assay; assay type: cell-based; settings: MONO-MAC-6, 4 h
[19] = Down regulation of IL-6 mRNA expression in LPS/INF-gamma stimulated human MONO-MAC-6 cells at 3.8 uM preincubated for 1 hr followed by LPS/INF-gamma stimulation measured after 4 hrs by quantitative RT-PCR analysis; assay type: functional, cell-based
MONO-MAC-6 [20] = assay: Inhibition of CXCL10 mRNA expression in LPS/INF-gamma stimulated human MONO-MAC-6 cells at 3.8 uM preincubated for 1 hr followed by LPS/INF-gamma stimulation measured after 16 hrs; assay type: functional, cell-based
[21] = Down regulation of […] mRNA expression in LPS/INF-gamma stimulated human MONO-MAC-6 cells at 3.8 uM preincubated for 1 hr followed by LPS/INF-gamma stimulation measured after 4 hrs by quantitative RT-PCR analysis; assay type: functional, cell-based
[22] = Inhibition of IRF (unknown origin) expressed in LPS/INF-gamma-stimulated human MONO-MAC-6 cells assessed as reduction in ISRE dependent transcription activity measured after 4 hrs by luciferase reporter gene assay; assay type: cell-based; settings: MONO-MAC-6, 4 h
[23] = Down regulation of IL-6 mRNA expression in LPS/INF-gamma stimulated human MONO-MAC-6 cells at 30 uM preincubated for 1 hr followed by LPS/INF-gamma stimulation measured after 4 hrs by quantitative RT-PCR analysis; assay type: functional, cell-based
[24] = Effect on GAPDH mRNA expression in human MONO-MAC-6 cells at 30 to 60 uM preincubated for 1 hr followed by LPS/INF-gamma stimulation measured after 4 hrs by quantitative RT-PCR analysis; assay type: ADME, cell-based; settings: mono-mac-6, 4 h
MONO-MAC-6 [25] = assay: Inhibition of CCL1 mRNA expression in LPS/INF-gamma stimulated human MONO-MAC-6 cells at 30 uM preincubated for 1 hr followed by LPS/INF-gamma stimulation measured after 16 hrs; assay type: functional, cell-based
MONO-MAC-6 [26] = assay: Inhibition of IL-8 mRNA expression in LPS/INF-gamma stimulated human MONO-MAC-6 cells at 30 uM preincubated for 1 hr followed by LPS/INF-gamma stimulation measured after 16 hrs; assay type: functional, cell-based
MONO-MAC-6 [27] = assay: Inhibition of CXCL10 mRNA expression in LPS/INF-gamma stimulated human MONO-MAC-6 cells at 30 uM preincubated for 1 hr followed by LPS/INF-gamma stimulation measured after 16 hrs; assay type: functional, cell-based
[28] = Down regulation of COX-2 mRNA expression in LPS/INF-gamma stimulated human MONO-MAC-6 cells at 30 uM preincubated for 1 hr followed by LPS/INF-gamma stimulation measured after 4 hrs by quantitative RT-PCR analysis; assay type: functional, cell-based
MONO-MAC-6 [29] = assay: Inhibition of CXCL11 mRNA expression in LPS/INF-gamma stimulated human MONO-MAC-6 cells at 30 uM preincubated for 1 hr followed by LPS/INF-gamma stimulation measured after 16 hrs; assay type: functional, cell-based
[30] = Down regulation of […] mRNA expression in LPS/INF-gamma stimulated human MONO-MAC-6 cells at 30 uM preincubated for 1 hr followed by LPS/INF-gamma stimulation measured after 4 hrs by quantitative RT-PCR analysis; assay type: functional, cell-based
[31] = Down regulation of CCL2 mRNA expression in LPS/INF-gamma stimulated human MONO-MAC-6 cells at 30 uM preincubated for 1 hr followed by LPS/INF-gamma stimulation measured after 4 hrs by quantitative RT-PCR analysis; assay type: functional, cell-based
MONO-MAC-6 [32] = assay: Inhibition of TNF-alpha mRNA expression in LPS/INF-gamma stimulated human MONO-MAC-6 cells at 30 uM preincubated for 1 hr followed by LPS/INF-gamma stimulation measured after 16 hrs; assay type: functional, cell-based
[33] = Down regulation of TNF-alpha mRNA expression in LPS/INF-gamma stimulated human MONO-MAC-6 cells at 30 uM preincubated for 1 hr followed by LPS/INF-gamma stimulation measured after 4 hrs by quantitative RT-PCR analysis; assay type: functional, cell-based
[34] = Down regulation of IL-8 mRNA expression in LPS/INF-gamma stimulated human MONO-MAC-6 cells at 30 uM preincubated for 1 hr followed by LPS/INF-gamma stimulation measured after 4 hrs by quantitative RT-PCR analysis; assay type: functional, cell-based
MONO-MAC-6 [35] = assay: Inhibition of IL-6 mRNA expression in LPS/INF-gamma stimulated human MONO-MAC-6 cells at 30 uM preincubated for 1 hr followed by LPS/INF-gamma stimulation measured after 16 hrs; assay type: functional, cell-based
MONO-MAC-6 [36] = assay: Inhibition of CXCL1 mRNA expression in LPS/INF-gamma stimulated human MONO-MAC-6 cells at 30 uM preincubated for 1 hr followed by LPS/INF-gamma stimulation measured after 16 hrs; assay type: functional, cell-based
MONO-MAC-6 [37] = assay: Inhibition of IL-23 mRNA expression in LPS/INF-gamma stimulated human MONO-MAC-6 cells at 30 uM preincubated for 1 hr followed by LPS/INF-gamma stimulation measured after 16 hrs; assay type: functional, cell-based
MONO-MAC-6 [38] = assay: Inhibition of CCL3 mRNA expression in LPS/INF-gamma stimulated human MONO-MAC-6 cells at 30 uM preincubated for 1 hr followed by LPS/INF-gamma stimulation measured after 16 hrs; assay type: functional, cell-based

In the case of CC(C)[C@H]1CC[C@]23C[C@@H]4[C@H](C)C(=O)[C@H]5O[C@]54[C@@]2(C)CC(=O)[C@]13C, the inhibition (MONO-MAC-6 [1]) is reported as “Active”, the Activity [2] is reported as “Active” and the inhibition (MONO-MAC-6 [3]) is reported as “Active”. For the same compound, the inhibition (MONO-MAC-6 [4]) was “Active”, the Activity [5] was “Non-Toxic” and the IC50 (MONO-MAC-6 [6]) was 0.9 to 1.2 µM. The inhibition (MONO-MAC-6 [7]) was “Active”, the inhibition (MONO-MAC-6 [8]) was “Active” and the inhibition (MONO-MAC-6 [9]) was “Active”. The inhibition (MONO-MAC-6 [10]) was “Dose-dependent effect”, the Activity [11] was “Non-Toxic” and the Activity [12] was “Non-Toxic”. The inhibition (MONO-MAC-6 [13]) was “Active”, the inhibition (MONO-MAC-6 [14]) was “Active” and the Activity [15] was “Active”. The Activity [16] was “Active”, the Activity [17] was “Active” and the IC50 [18] was 0.32 to 0.4 µM. For the same compound, the Activity [19] was “Active”, the inhibition (MONO-MAC-6 [20]) was “Active” and the Activity [21] was “Active”. For the same compound, the IC50 [22] was 0.8 to 1 µM.
With C=C[C@H]1CC[C@]23C[C@@H]4[C@H](C)[C@@H](O)[C@H]5O[C@@]45[C@@]2(C)CC(=O)[C@]13C the IC50 (MONO-MAC-6 [6]) was > 50 µM, the Activity [11] was “Non-Toxic” and the Activity [12] was “Non-Toxic”. The IC50 [18] was > 50 µM and the IC50 [22] was > 50 µM.
With CC(C)[C@H]1CC[C@]23C[C@@H]4[C@H](C)C(=O)[C@H]5O[C@]54[C@@]2(C)[C@@H](O)C(=O)[C@]13C the Activity [23] was “Active”, the Activity [24] was “Non-Toxic” and the IC50 (MONO-MAC-6 [6]) was 7 to 7.5 µM. For the same compound, the inhibition (MONO-MAC-6 [25]) was “Active”, the inhibition (MONO-MAC-6 [26]) was “Active” and the inhibition (MONO-MAC-6 [27]) was “Active”. For the same compound, the inhibition (MONO-MAC-6 [10]) was “Dose-dependent effect”, the Activity [11] was “Non-Toxic” and the Activity [28] was “Active”. For the same compound, the inhibition (MONO-MAC-6 [29]) was “Active”, the Activity [12] was “Non-Toxic” and the Activity [30] was “Active”. For the same compound, the Activity [31] was “Active”, the inhibition (MONO-MAC-6 [32]) was “Active” and the Activity [33] was “Active”. The IC50 [18] was 20 to 25 µM, the Activity [34] was “Active” and the inhibition (MONO-MAC-6 [35]) was “Active”. The inhibition (MONO-MAC-6 [36]) was “Active”, the inhibition (MONO-MAC-6 [37]) was “Active” and the IC50 [22] was 40 to 45 µM. For the same compound, the inhibition (MONO-MAC-6 [38]) was “Active”.
